The test system of the data set is ApoB mRNA. Description: Knock down of ApoB mRNA in vivo (qPCR on liver and kidney RNA). To be noted: C57BL6/J mice, single sc dose 0.25 mg/kg GalNAc2 or equimolar amounts; for down regulation of ApoB mRNA in kidney: sacrificed at day 10, kidney, qPCR (FIG. 7B); for ApoB mRNA knock down in the liver: sacrificed at day 10, liver, qPCR (FIG. 7A). As for the experimental part:
To compare the effect of different GalNAc constructs C57BL6/J mice were injected sc with a single dose saline or 0.25 mg/kg GalNAc2 cluster conjugated LNA-antisense oligonucleotide (GalNAc2) or equimolar amounts of LNA antisense oligonucleotides conjugated to the GalNAc constructs of the invention (FIGS. 6 E, I, M and N) or unconjugated LNA antisense oligonucleotide (see Example 2, table 1 for details) and sacrificed at days 10 where liver and kidney were isolated.
At sacrifice RNA was isolated from liver and kidney and subjected to qPCR with ApoB specific primers and probe to analyze for ApoB mRNA knockdown as described in the protocol below.
The animals were anaesthetised with 70% CO2-30% O2 and sacrificed by cervical dislocation. One half of the large liver lobe and one kidney were minced and submerged in RNAlater.
Total RNA was extracted from a maximum of 30 mg of tissue/sample, homogenized by bead-milling in the presence of lysis buffer (MagnaPure LC RNA Isolation Tissue buffer (#03604721001; Roche)) according to the manufacturer's instructions. The RNA was purified on a MagnaPure 96 System; Roche using Cellular RNA Large Volume Kit (#05467535001; Roche) using the manufacturer's standard protocol. First strand synthesis was performed using Reverse Transcriptase reagents from Ambion according to the manufacturer's instructions.
For each sample 0.5 μg total RNA was adjusted to (10.8 μl) with RNase free H2O and mixed with 2 μl random decamers (50 μM) and 4 μl dNTP mix (2.5 mM each dNTP) and heated to 70° C. for 3 min after which the samples were rapidly cooled on ice. 2 μl 10× Buffer RT, 1 μl MMLV Reverse Transcriptase (100 U/μl) and 0.25 μl RNase inhibitor (10 U/μl) were added to each sample, followed by incubation at 42° C. for 60 min, heat inactivation of the enzyme at 95° C. for 10 min and then the sample was cooled to 4° C. cDNA samples were diluted 1:5 and subjected to RT-QPCR using Taqman Fast Universal PCR Master Mix 2× (Applied Biosystems Cat #4364103) and Taqman gene expression assay (mApoB, Mn01545150_ml and mGAPDH #4352339E) following the manufacturers protocol and processed in an Applied Biosystems RT-qPCR instrument (7500/7900 or ViiA7) in fast mode.

Strand notation (5' to 3'): a small letter for the sugar, then the base; units joined by * are phosphorothioate-linked, units joined directly phosphodiester-linked; [ ] holds rarer units or linkages, { } end groups; capitals alone tell only the bases. l = locked nucleic acid (LNA); [5mC] = 5-methylcytosine; d = 2'-deoxy (DNA)

With “Control: unconjugated oligonucleotide of SEQ ID NO: 1 (5′G^mCattggtatT^mCA-3′), without any GalNAc moieties attached (DNA GCATTGGTATTCA; LNA modifications, chemistry not fully specified) [reference compound]”, the “down regulation of ApoB mRNA in kidney” value is given as “higher”.

For “E: trivalent GalNAc construct, chain length 10, conjugated to oligonucleotide SEQ ID NO: 2 (5′ caG^mCattggtatT^mCA-3′) (antisense CAGCATTGGTATTCA; sugars from the 5' end d2 l2 d8 l3, [5mC] at 4, 14, backbone not given here; trivalent GalNAc conjugate, first linkages phosphodiester)”, the “down regulation of ApoB mRNA in kidney” value was “higher for the unconjugated LNA oligonucleotide (control) than for the GalNAc conjugated compounds” and the “ApoB mRNA knock down in the liver” value is given as “comparable effect on the target mRNA (ApoB mRNA) to the GalNAc2 cluster”.

For the substance “GalNAc2: SEQ ID NO: 1 attached to the GalNAc2 cluster by a phospothioate group; SEQ ID NO: 20 in WO 2014/076196 (antisense lG*l[5mC]*dA*dT*dT*dG*dG*dT*dA*dT*lT*l[5mC]*lA; GalNAc2 cluster attached via phosphorothioate, end not given here) [reference compound]”, the “down regulation of ApoB mRNA in kidney” value was “higher for the unconjugated LNA oligonucleotide (control) than for the GalNAc conjugated compounds”.

As to “I: trivalent GalNAc construct, chain length 16, conjugated to oligonucleotide SEQ ID NO: 2 (antisense CAGCATTGGTATTCA; sugars from the 5' end d2 l2 d8 l3, [5mC] at 4, 14, backbone not given here; trivalent GalNAc conjugate, first linkages phosphodiester)”, the “down regulation of ApoB mRNA in kidney” value was “higher for the unconjugated LNA oligonucleotide (control) than for the GalNAc conjugated compounds” and the “ApoB mRNA knock down in the liver” value is given as “comparable effect on the target mRNA (ApoB mRNA) to the GalNAc2 cluster”.

Consider “M: trivalent GalNAc construct with spacer, chain length 16, conjugated to oligonucleotide SEQ ID NO: 2 (antisense CAGCATTGGTATTCA; sugars from the 5' end d2 l2 d8 l3, [5mC] at 4, 14, backbone not given here; further chemistry not fully specified)”, for which the “down regulation of ApoB mRNA in kidney” value is “higher for the unconjugated LNA oligonucleotide (control) than for the GalNAc conjugated compounds” and the “ApoB mRNA knock down in the liver” value is on record as “comparable effect on the target mRNA (ApoB mRNA) to the GalNAc2 cluster”.

For the substance “N: trivalent GalNAc construct with spacer, chain length 30, conjugated to oligonucleotide SEQ ID NO: 2 (antisense CAGCATTGGTATTCA; sugars from the 5' end d2 l2 d8 l3, [5mC] at 4, 14, backbone not given here; further chemistry not fully specified)”, the “down regulation of ApoB mRNA in kidney” value is reported as “higher for the unconjugated LNA oligonucleotide (control) than for the GalNAc conjugated compounds” and the “ApoB mRNA knock down in the liver” value is listed as “comparable effect on the target mRNA (ApoB mRNA) to the GalNAc2 cluster”.

The record behind these values is patent publication US11505569B2, “GalNAc phosphoramidites, nucleic acid conjugates thereof and their use” (Hoffmann-La Roche, Inc., priority 2014, dated 2022).
